Results reported in US20250002435A1, “ARYLATED FENCHONE DERIVATIVES, COMPOSITIONS COMPRISING THEM, PROCESSES FOR THEIR PREPARATION AND USES THEREOF” (priority 2021, published 2025).
Values joined by “and” are separate entries in the source; they are usually repeats but may differ in a detail not shown here. Identical values can stand only once.

Key:
CNR2 = CNR2 (Homo sapiens (Human), UniProt P34972); test: cAMP Hunter agonist assay, CHO-K1 cells expressing CB2; assay type: cell-based; conditions: for EC50: cells expressing CNR2; for agonist response CNR2: cells expressing CNR2, cAMP
Protocol: (§1) Cannabinoid receptors belong to G-protein-coupled receptors which may transduce intracellular agonist-antagonist responses regulating in part levels of cAMP within the cells. Fenchone derivates were assayed using Eurofins proprietary assays (i.e. CB1-Antagonist Catalog #86-0007P-2277AN; CB2-Antagonist Catalog ref. 86-0007P-2818AN; CB1-Agonist; Catalog #86-0007P-2277AG; CB2-Agonist-Catalog #86-0007P-2818AG).
Similarly, for agonist activity, cAMP Hunter™ Gs cell lines overexpress naturally Gs coupled, wild type GPCRs and are designed to detect increases in intracellular cAMP levels in response to agonist stimulation of the receptor. These cell lines are designed to be used in conjunction with the HitHunter® cAMP Assay Detection Kit. For both assays, human CB1 or CB2 receptors were stably transfected CHO-K1 cells and subjected to positive controls, known to activate the increase of cAMP for both receptors (Agonist control 20 μM Forskolin for CB1 and 25 μM Forskolin for CB2) or inhibit cAMP intracellular levels of CB1 ([…] CP55940) or CB2 ([…] CP55940). Cells were seeded in a total volume of 20 μL into white walled, 384-well microplates and incubated at 37° C. overnight. Prior to testing cell plating media was exchanged with 10 uL of Assay buffer (HBSS+10 mM HEPES). Five 5 μL of agonist (test sample, vehicle or positive control) were added to cells and incubated at 37° C. for 30 minutes. Final assay vehicle concentration was 1% and the results are expressed in relation to the control ligand.

CNR1 = CNR1 (Homo sapiens (Human), UniProt P21554); test: cAMP Hunter antagonist assay, CB1; assay type: cell-based; conditions: cAMP antagonist mode
Protocol: as §1
(§2) Briefly, for antagonist activity, cAMP Hunter™ Gi cell lines overexpress naturally Gi coupled, wild type GPCRs and are designed to detect inhibition of intracellular cAMP production in response to agonist stimulation of the receptor. These cell lines are designed to be used in conjunction with the HitHunter® cAMP Assay Detection Kit.
as §2, with “Similarly,” for “Briefly,”, “agonist” for “antagonist”, “Gs” for “Gi”, “increases in” for “inhibition of”, “levels” for “production”, “Kit. […]” for “Kit.”

[1] = test system: zymosan-induced hyperalgesia; test: zymosan mouse paw inflammatory pain model, von Frey test, with or without CB2 antagonists; assay type: in vivo; conditions: for von Frey pain effect: SR144528 experiment, 25 mg/kg IP
Protocol: (§3) To induce inflammation, 40 μL of 1.5% (w/v) zymosan A (Sigma) suspended in 0.9% saline was injected into the sub-planter surface of the right hind paw of the mice. Immediately after zymosan injection, antagonists were injected intraperitoneally (IP) and after 30 minutes, the fenchone derivatives dissolved in 0.1 mL vehicle containing ethanol:Cremophore:saline at a ratio of 1:1:18 were injected. Control mice were injected with the vehicle only. After 2, 6, and 24 hrs, paw swelling, and pain perception were measured.
(§4) Specifically, measurement of Oedema Formation was assessed by monitoring paw swelling via calibrated calipers (0.01 mm), 6 and 24 hrs following injections of zymosan alone and/or the test compounds. Pain hyperalgesia was evaluated by the paw withdrawal von Frey test at 6, and 24 h following injections of zymosan and/or the test compounds. […] In this study, only 1.4-60 g corresponding to 4.17 to 5.88 log of force was used, to test the mouse sensitivity to a mechanical stimulus on the swollen paw. The measurements were performed in a quiet room. Before paw pain measurements, the animals were held for 10 sec. The trained investigator applied the filament to the central area of the hind paw with gradual increasing size. The test consisted of poking the middle of the hind paw to provoke a flexion reflex followed by a clear flinch response after paw withdrawal. Each one of the von Frey filaments was applied for approximately 3-4 s to induce the end-point reflex. The first testing was done by using the force filament of 1.4 g. If there was no withdrawal response, the next higher stimulus was tried. The mechanical threshold force (in grams (g)) was defined as the lowest force imposed by two von Frey monofilaments of various sizes, required to produce a paw retraction. The untreated left hind paw served as a control.

[2] = test system: zymosan-induced paw swelling; test: zymosan mouse paw inflammatory pain model, paw swelling, with or without CB2 antagonists; assay type: in vivo; conditions: for paw swelling vs control: 6 h; for paw swelling effects: SR144528 experiment, 24 h after induction
Protocol: as §3, §4

hCB2R = hCB2R (Homo sapiens (Human), UniProt P34972); test: [35S]GTPγS binding assay, hCB2R CHO cell membranes; assay type: biochemical; conditions: for functional activity at hCB2R (agonist / inverse agonist): [35S]GTPγS binding; for EC50: [35S]GTPγS binding to hCB2R, two independent experiments in triplicate; for E(max) %: percentage of HU-308 response at 1 μM
Protocol: Functional Characterization.
The method used for measuring agonist-stimulated binding of [^35S]GTPγS was based on a described protocol. The assays were carried out with GTPγS assay buffer (50 mM Tris HCl (pH 7.4), 0.2 mM EGTA, 9 mM MgCl2, 150 mM NaCl, 1 mg/ml BSA). Briefly, membranes (5 μg protein) were incubated in assay buffer containing 100 μM GDP, 0.05 nM [^35S]GTPγS, test compounds at various concentrations in siliconized glass tubes. Bound ligand was separated from free ligand by vacuum filtration. Nonspecific binding was determined using 10 μM GTPS. Basal binding was assayed in the absence of the ligand and in the presence of GDP.

mCB1R = mCB1R (Mus musculus (Mouse), UniProt P47746); test: [3H]CP-55,940 competition displacement binding, crude membranes from mouse brain; conditions: for Ki: displacement of [3H]CP-55,940, NB = No binding detected at concentrations up to 10 μM, read-out: Ki (nM) mCB1R
Protocol: Affinity for Cannabinoid Receptors. The compounds were further characterized using a radioligand binding assay to determine their affinities for CB1R and CB2R based on each test compound's ability to displace the radiolabeled CB1R/CB2R agonist CP-55,940 from membranes prepared from a mouse brain (a source of CB1R) and membranes of cells expressing the human CB2R. […] Therefore, the compounds were assayed using membranes from CHO-K1 cells expressing the human CB2R (hCB2R).
Membranes from cells expressing human CB2R were purchased from Charles River, (Cat #A308; Ohio, US). Solutions of test compounds ranging from 0.1 nM to 10 mM were prepared in DMSO. The desired amount of membrane preparation was diluted with ice-cold assay buffer (50 mM Tris-HCl, 2.5 mM EDTA, 5 mM MgCl2, 0.1% BSA, pH 7.4) and was vortexed. […] The assays were incubated for 90 minutes at 30° C. and then immediately filtered on WHATMAN GF/B FilterPaper (Fired) using a Brandel M-24R Harvester followed by six washes with ice cold wash buffer (50 mM Tris-HCl, 2.5 mM EDTA, 5 mM MgCl2, 0.1% BSA, pH 7.4). Radioactivity was detected by adding the FilterPaper directly to the ULTIMA GOLD scintillation cocktail (PerkinElmer), incubation at 20° C. for 60 min and then counted using a Tri-Carb 4910TR liquid scintillation counter.

[3] = 25 mg/kg IP together with CB2 antagonist SR144528 1 mg/kg

Sequence of hCB2R (P34972 whole entry): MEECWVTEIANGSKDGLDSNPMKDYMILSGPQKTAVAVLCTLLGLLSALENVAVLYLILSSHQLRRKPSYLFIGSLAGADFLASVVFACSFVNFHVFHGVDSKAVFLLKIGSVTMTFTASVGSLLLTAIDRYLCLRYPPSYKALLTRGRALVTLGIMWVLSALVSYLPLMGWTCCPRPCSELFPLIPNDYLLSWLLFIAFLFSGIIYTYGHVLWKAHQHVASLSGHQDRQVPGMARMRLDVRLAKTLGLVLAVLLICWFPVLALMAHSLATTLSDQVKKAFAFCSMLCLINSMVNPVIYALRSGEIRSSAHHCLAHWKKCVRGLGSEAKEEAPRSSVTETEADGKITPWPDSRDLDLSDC
Sequence of mCB1R (P47746 whole entry): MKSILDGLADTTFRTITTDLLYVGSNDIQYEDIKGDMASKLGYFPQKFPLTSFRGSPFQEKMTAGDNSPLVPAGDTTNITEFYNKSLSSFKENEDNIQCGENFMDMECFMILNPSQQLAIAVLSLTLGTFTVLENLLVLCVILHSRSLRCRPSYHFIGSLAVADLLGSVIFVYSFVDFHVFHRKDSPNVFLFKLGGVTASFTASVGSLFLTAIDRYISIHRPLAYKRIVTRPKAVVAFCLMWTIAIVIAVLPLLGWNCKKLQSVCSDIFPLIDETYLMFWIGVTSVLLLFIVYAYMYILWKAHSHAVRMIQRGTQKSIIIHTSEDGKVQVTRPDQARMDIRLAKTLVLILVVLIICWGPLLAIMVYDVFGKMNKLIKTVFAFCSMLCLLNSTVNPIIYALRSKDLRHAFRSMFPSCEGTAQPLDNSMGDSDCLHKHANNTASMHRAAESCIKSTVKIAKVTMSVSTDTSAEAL

SMILES	EC50 (CNR2) [nM]	agonist response CNR2 (CNR2)	antagonistic effect CNR1 (CNR1)	von Frey pain effect [1]	paw swelling vs control [2, 3]	paw swelling vs control ([2]; 25 mg/kg IP, alone)	paw swelling effects [2]	functional activity at hCB2R (agonist / inverse agonist) (hCB2R)	EC50 (hCB2R)	E(max) % (hCB2R) [%]	Ki (mCB1R) [nM]	inhibition of [3H]CP-55,940 binding to mCB1R (mCB1R; in words)	von Frey pain phenotype ([1]; 25 mg/kg IP alone, AM630 experiment)	paw swelling ([2]; 25 mg/kg IP 1D and 10 mg/kg AM630, 6 h)	paw swelling ([2]; 25 mg/kg IP alone, 24 h, AM630 experiment)
CCCCCc1cc(OC)c(C2(O)C3(C)CCC(C3)C2(C)C)c(OC)c1 (single isomer, unassigned) [Compound 1b, 2-(2,6′-dimethoxy-4′-pentylphenyl)-1,3,3-trimethylbicyclo[2.2.1]heptan-2-ol]	50	noticeable response	no detectable antagonistic effect	insignificant	paw swelling was unaffected	reduced swelling response	not observed	agonist	11.6 nM	65.1	2290	no detectable inhibition			
CCCCCCC(C)(C)c1cc(OC)c([C@]2(O)C3(C)CCC(C3)C2(C)C)c(OC)c1 (some centres unmarked) [Compound 1d, 2-(2,6′-dimethoxy-4′-(2″-methyloctan-2″-yl)phenyl)-1,3,3-trimethyl-bicyclo[2.2.1]heptan-2-ol]	10	noticeable response	no detectable antagonistic effect	insignificant	swelling was reduced compared to the control	reduced swelling response	not observed	agonist	2.6 nM and 2.59 nM	89.63	427		significant affect	reduced swelling	reduced swelling with 1D alone was sustained
